Reference: patent US20030050248A1 (priority 2000, published 2003)
In brackets after ≈: the same amount, converted by molar mass. Read-outs that look alike come from different tables or passages of the source.

Experiments:
S. aureus [1] = test system: S. aureus
S. aureus [2] = assay type: cell-based
RNAIII = assay type: cell-based, S. aureus
S. aureus [3] = assay: microbe, parasite or virus in culture; conditions: Staphylococcus aureus, Erythrocyte, in Oryctolagus cuniculus
S. aureus [4] = assay: Mouse model, Staph injected IP 20 min prior to drug injection (IP); assay type: in vivo, mice; conditions: 20 min after Staph
Protocol: (§1) The assay was carried out by injecting a fixed amount of a S. aureus culture, typically containing from about 5×10^9 cells from an early exponential growth stage culture, by intraperitoneal (IP) injection into mice, based on the method described by Thakker et al., 1998.
In another approach, S. aureus was injected IP 20 minutes prior to IP injection of VIF-1 or FTB.
The commonly used anti-Staphylococcal antibiotics, methicillin and vancomycin, were tested in this model.

S. aureus [5] = assay: Mouse model, Staph mixed with drug prior to IP injection; assay type: in vivo, mice; conditions: mixed with Staph prior to IP injection
Protocol: as §1
In one study, the S. aureus was mixed with VIF-1 or FTB, prior to IP injection.

[6] = read-out: IC50 (relative activity), text b100/b101, assay not named, values match the α-hemolysin column of Table 4
[7] = read-out: Inhibition of α-Hemolysin production, Table 4, (n) in cell = number of determinations

O=C(O)CC[C@H](Cc1ccccc1)NC(=O)OCC1c2ccccc2-c2ccccc21 [(R)-Fmoc-4-amino-5-phenyl-pentanoic acid]
IC50 (relative activity) (S. aureus [1]): 1.7 µg

N[C@@H](Cc1c[nH]c2ccccc12)C(=O)O [Reference #46, H-L-Trp-OH]
Inhibition of TSST-1 (S. aureus [2]): >10.0 µg/mL
Inhibition of RNA III activation (RNAIII): >10.0 (3) μg/ml

O=C(O)CC(NC(=O)OCC1c2ccccc2-c2ccccc21)c1ccc(Br)cc1 (racemic) [(R,S)-Fmoc-3-amino-3-(4-bromophenyl)-propionic acid]
IC50 (relative activity) (S. aureus [1]): 1.0 µg

O=C(N[C@@H](Cc1ccccc1)C(=O)O)OCC1c2ccccc2-c2ccccc21 [Fmoc-L-Phe-OH]
IC50 (relative activity) (S. aureus [1]): 1.3 µg

CC(C)(C)OC(=O)n1cnc(C[C@H](NC(=O)OCC2c3ccccc3-c3ccccc32)C(=O)O)c1 [Reference #43, Fmoc-L-His(Boc)-OH]
Inhibition of α-Hemolysin production (S. aureus [1]): >50 µg/mL

O=C(O)[C@H]1Cc2c([nH]c3ccccc23)CN1C(=O)OCC1c2ccccc2-c2ccccc21 [Reference #18, Fmoc-D-1,2,3,4-tetrahydronorharman-3-carboxylic acid]
Inhibition of α-Hemolysin production (S. aureus [1]): 2.0 (5) μg/ml

O=C(O)CC(NC(=O)OCC1c2ccccc2-c2ccccc21)c1ccc(Br)cc1 (racemic) [Reference #127, (R,S)-Fmoc-3-amino-3-(4-bromophenyl)-propionic acid]
Inhibition of α-Hemolysin production (S. aureus [1]): 1.4 (3) μg/ml

O=C(N[C@@H](CC1CCCCC1)C(=O)O)OCC1c2ccccc2-c2ccccc21 [Fmoc-beta-cyclohexyl-L-alanine]
IC50 (S. aureus [3]; [6]): 4 µg/mL (≈ 10.2 µM)

O=C(O)[C@@H]1CCN1C(=O)OCC1c2ccccc2-c2ccccc21 [Reference #120, Fmoc-L-azetidine-2-carboxylic acid]
Inhibition of α-Hemolysin production (S. aureus [1]): 12.0 µg/mL

O=C(N[C@@H](C(=O)O)c1ccccc1)OCC1c2ccccc2-c2ccccc21 [Fmoc-D-phenylglycine]
IC50 (S. aureus [3]; [6]): 5.5 µg/mL (≈ 14.7 µM)

O=C(O)CC[C@H](Cc1ccccc1)NC(=O)OCC1c2ccccc2-c2ccccc21 [Reference #126, (R)-Fmoc-4-amino-5-phenyl-pentanoic acid]
Inhibition of RNA III activation (RNAIII): 9.0 (2) μg/ml
Inhibition of α-Hemolysin production (S. aureus [1]): 1.7 (4) μg/ml

O=C(NC1(C(=O)O)CCCCC1)OCC1c2ccccc2-c2ccccc21 [Fmoc-1-amino-1-cyclohexane carboxylic acid]
IC50 (relative activity) (S. aureus [1]): 0.9 µg

Cc1ccc(C[C@H](NC(=O)OCC2c3ccccc3-c3ccccc32)C(=O)O)cc1 [Reference #74, Fmoc-4-methyl-L-phenylalanine]
IC50 (S. aureus [3]; [7]): 2.3 µg/mL (≈ 5.73 µM)

O=C(N[C@@H](Cc1cnc[nH]1)C(=O)O)OCC1c2ccccc2-c2ccccc21 [Reference #42, Fmoc-L-His]
Inhibition of α-Hemolysin production (S. aureus [1]): 47 µg/mL

O=C(NCCCC[C@H](NC(=O)OCC1c2ccccc2-c2ccccc21)C(=O)O)OCc1ccccc1 [Reference #69, Fmoc-L-Lys(Z)-OH]
Inhibition of RNA III activation (RNAIII): 4.7 (3) μg/ml
Inhibition of α-Hemolysin production (S. aureus [1]): 2.8 (4) μg/ml

O=C(O)[C@@H]1CC[C@H](c2ccccc2)N1C(=O)OCC1c2ccccc2-c2ccccc21 [(2S,5R)-Fmoc-5-phenyl-pyrrolidine-2-carboxylic acid]
IC50 (relative activity) (S. aureus [1]): 1.0 µg

CC(C)[C@H](NC(=O)OCC1c2ccccc2-c2ccccc21)C(=O)O [Fmoc-L-Val-OH]
IC50 (relative activity) (S. aureus [1]): 4.2 µg

CC(C)[C@H](NC(=O)OCC1c2ccccc2-c2ccccc21)C(=O)O [Reference #38, Fmoc-L-Val-OH]
Inhibition of RNA III activation (RNAIII): >2.5 µg/mL
Inhibition of α-Hemolysin production (S. aureus [1]): 1.5 µg/mL

O=C(N[C@@H](Cc1ccc(Cl)cc1)C(=O)O)OCC1c2ccccc2-c2ccccc21 [Reference #92, Fmoc-4-chloro-L-D-phenylalanine]
Inhibition of α-Hemolysin production (S. aureus [1]): 1.6 (5) μg/ml

O=C(N[C@H](C(=O)O)c1ccccc1)OCC1c2ccccc2-c2ccccc21 [Fmoc-L-phenylglycine]
IC50 (S. aureus [3]; [6]): 5 µg/mL (≈ 13.4 µM)

O=C(N[C@@H](Cc1c[nH]c2ccccc12)C(=O)O)OCC1c2ccccc2-c2ccccc21 [Reference #34, Fmoc-L-Trp-OH]
Inhibition of RNA III activation (RNAIII): >2.5 µg/mL
Inhibition of α-Hemolysin production (S. aureus [1]): 9.0 µg/mL

O=C(O)[C@H]1[C@H](c2ccccc2)CN1C(=O)OCC1c2ccccc2-c2ccccc21 (racemic) [Reference #104, Racemic Fmoc-trans-3-phenyl-azetidine-2-carboxylic acid]
IC50 (relative activity) (S. aureus [1]): 3.9 µg

O=C(N[C@@H](CC1CCCCC1)C(=O)O)OCC1c2ccccc2-c2ccccc21 [Reference #82, Fmoc-beta-cyclohexyl-L-alanine]
IC50 (S. aureus [3]; [7]): 4 µg/mL (≈ 10.2 µM)

C[C@H](NC(=O)OCC1c2ccccc2-c2ccccc21)C(=O)O [Reference #52, Fmoc-L-Ala-OH]
Inhibition of α-Hemolysin production (S. aureus [1]): 6.5 µg/mL

O=C(N[C@@H](Cc1ccc(Br)cc1)C(=O)O)OCC1c2ccccc2-c2ccccc21 [Reference #73, Fmoc-4-bromo-L-phenylalanine]
IC50 (S. aureus [3]; [7]): 1.7 µg/mL (≈ 3.65 µM)

O=C(O)[C@@H]1CCN1C(=O)OCC1c2ccccc2-c2ccccc21 [Fmoc-L-azetidine-2-carboxylic acid]
IC50 (relative activity) (S. aureus [1]): 12 µg

O=C(N[C@@H](Cc1cccs1)C(=O)O)OCC1c2ccccc2-c2ccccc21 [Reference #83, Fmoc-beta-(2-thienyl)-L-alanine]
IC50 (S. aureus [3]; [6]): 25 µg/mL (≈ 63.5 µM)
IC50 (S. aureus [3]; [7]): 25 µg/mL (≈ 63.5 µM)

O=C(N[C@@H](Cc1c[nH]c2ccccc12)C(=O)O)OCC1c2ccccc2-c2ccccc21 [Fmoc-L-Trp-OH]
IC50 (relative activity) (S. aureus [1]): 9 µg

O=C(N[C@@H](Cc1ccc2ccccc2c1)C(=O)O)OCC1c2ccccc2-c2ccccc21 [Fmoc-3-(2-naphthyl)alanine]
IC50 (S. aureus [3]; [6]): 4.2 µg/mL (≈ 9.6 µM)

O=C(N[C@@H](Cc1ccccc1)C(=O)O)OCC1c2ccccc2-c2ccccc21 [Reference #32, Fmoc-L-Phe-OH]
Inhibition of RNA III activation (RNAIII): >2.5 µg/mL
Inhibition of α-Hemolysin production (S. aureus [1]): 1.3 µg/mL

COc1cccc(OC)c1C(=O)N[C@@H]1C(=O)N2[C@@H]1SC(C)(C)[C@@H]2C(=O)O [methicillin, reference compound]
% Survival at 24 hr. (S. aureus [4]; 1 mg/kg IP): 17%
% Survival at 24 hr. (S. aureus [4]; 10 mg/kg IP): 50%
% Survival at 24 hr. (S. aureus [4]; 100 mg/kg IP): 100%

N[C@@H](Cc1c[nH]c2ccccc12)C(=O)O [Trp, reference compound]
% Survival at 24 hr. (S. aureus [5]; 1 mg/kg): 0%
% Survival at 24 hr. (S. aureus [5]; 5 mg/kg): 33%

C[C@H](NC(=O)OCC1c2ccccc2-c2ccccc21)C(=O)O [Fmoc-L-Ala-OH]
IC50 (relative activity) (S. aureus [1]): 6.5 µg

CC(C)C[C@H](NC(=O)OCC1c2ccccc2-c2ccccc21)C(=O)O [Reference #67, Fmoc-L-Leu-OH]
Inhibition of α-Hemolysin production (S. aureus [1]): 2.1 (4) μg/ml

O=C(N[C@@H](Cc1cn(C(c2ccccc2)(c2ccccc2)c2ccccc2)cn1)C(=O)O)OCC1c2ccccc2-c2ccccc21 [Reference #29, Fmoc-L-His(Trt)-OH]
Inhibition of TSST-1 (S. aureus [2]): 4.0 µg/mL
Inhibition of RNA III activation (RNAIII): 3.7 (3) μg/ml
Inhibition of α-Hemolysin production (S. aureus [1]): 2.7 (3) μg/ml

CC(C)(C)OC(=O)n1cc(C[C@@H](NC(=O)OCC2c3ccccc3-c3ccccc32)C(=O)O)c2ccccc21 [Reference #78, Fmoc-D-Trp(Boc)-OH]
Inhibition of α-Hemolysin production (S. aureus [1]): 1.3 (5) μg/ml

CC(C)(C)OC(=O)n1cc(C[C@@H](NC(=O)OCC2c3ccccc3-c3ccccc32)C(=O)O)c2ccccc21 [Fmoc-D-Trp(Boc)-OH]
IC50 (relative activity) (S. aureus [1]): 1.0 µg

CN[C@H](CC(C)C)C(=O)N[C@H]1C(=O)N[C@@H](CC(N)=O)C(=O)N[C@H]2C(=O)N[C@H]3C(=O)N[C@H](C(=O)N[C@H](C(=O)O)c4cc(O)cc(O)c4-c4cc3ccc4O)[C@H](O)c3ccc(c(Cl)c3)Oc3cc2cc(c3O[C@@H]2O[C@H](CO)[C@@H](O)[C@H](O)[C@H]2O[C@H]2C[C@](C)(N)[C@H](O)[C@H](C)O2)Oc2ccc(cc2Cl)[C@H]1O [vancomycin, reference compound]
% Survival at 24 hr. (S. aureus [4]; 0.5 mg/kg IP): 17%
% Survival at 24 hr. (S. aureus [4]; 5 mg/kg IP): 50%
% Survival at 24 hr. (S. aureus [4]; 50 mg/kg IP): 100%

CC(C)(C)OC(=O)n1cc(C[C@H](N)C(=O)O)c2ccccc21 [Reference #45, H-L-Trp(Boc)-OH]
Inhibition of RNA III activation (RNAIII): >10.0 µg/mL
Inhibition of α-Hemolysin production (S. aureus [1]): >50 µg/mL

CC(C)(C)OC(=O)n1cc(C[C@H](NC(=O)OCC2c3ccccc3-c3ccccc32)C(=O)O)c2ccccc21 [Fmoc-L-Trp(Boc)-OH]
IC50 (relative activity) (S. aureus [1]): 1.2 µg
